# Patent US6770673B1, “Therapeutic uses of arglabin in combination with other chemotherapy agents” (priority 1997, dated 2004)
# Marks after values point to notes of the source that are not given here.
# Assays:
# [1] = LD50, intraperitoneal injection; format: in vivo; settings: 2% solution in DMSO
# Source text: (§1) Overall, the compounds in this family have low toxicity and are tolerated at dosages exceeding the therapeutic dosage.
# [2] = tested on: farnesylation of proteins; experiment: Protein prenylation in myeloma Pai cells, naphthol cleavage and HPLC; format: cell-based, mouse; settings: 60 μM, FIG. 8B
# Description: (§2) The cells were collected by centrifugation at 600×g for 10 minutes and then washed twice in PBS. Control cells were grown in the absence of drug. The cells were solubilized in lysis buffer (50 mM Tris, pH 7.4, 25 mM EDTA, 0.05% Tween, 0.01 M NaCl) for 30 minutes on ice. Lysates were made by homogenization for 5 minutes at 4° C. and precipitated by centrifugation at 12,000×g for 10 minutes. The supernatant was collected. Proteins were precipitated with trichloroacetic acid and then successively washed with ethanol and ethyl ether. A selective naphthol cleavage of the bond between isoprenoides and proteins was performed as described by Epstein, W. W et al., (1991) Proc. Natl. Acad. Sci. USA 88:9668-9670. In general, 5 mg of a potassium naphthoxide and naphthol 4:1 mixture was added to approximately 10 mg of precipitated protein. After addition of 50 μl of dimethylformamide, the tubes were gassed with argon, capped and heated to 100° C. for eight to 15 hours. Reaction products were extracted with hexane and analyzed by HPLC (Waters System) using a 0.4×15 cm reverse-phase Nova-Pac C18 column. The column was eluted with 20% water in acetonitrile at a flow of 1.0 ml/minute. Napthol cleavage products were detected at 360 nm (FIG. 8) with a full-scale deflection of 0.01 A unit. […]
# geranylgeranylation = experiment: as above; format: cell-based, mouse; settings: 60 μM, FIG. 8B
# Description: as §2
# immune system [3] = experiment: Immunity of rats with initial and prospidin resistant tumors with metastases; format: in vivo; settings: sarcolysin, cisplatin
# L-1210 = experiment: Implanted leukemia, survival; format: in vivo, mice and rats; settings: dose 30 mg/kg
# Pliss lymphosarcoma = experiment: Inhibition of tumor growth in implanted tumors; format: in vivo, rats; settings: dose 30 mg/kg
# PC-1 = experiment: Inhibition of tumor growth in implanted tumors; format: in vivo, mice and rats; settings: dose 30 mg/kg
# [4] = Toxicity and maximum tolerable doses of arglabin and derivatives; format: in vivo, rats, guinea pigs, mice, rabbits; settings: 2% aqueous solution, blood serum and hepatic tissue
# Source text: as §1
# Blood pressure was maintained.
# [5] = tested on: end-stage (III-IV) cancer; experiment: First clinical trial, 51 patients
# Description: The patient population was 67.9% male and 32.1% female. […] Intrapleural administration was used for patients with pleurisy. Patients were given a very small dose and monitored for any signs of allergic reaction before proceeding. […] After 30-35 days, the dose was increased to 480 mg per day. […] It was estimated that the daily dose should be about 240-280 mg for typical cases. […] Additional courses of treatment were administered to some patients. Patient condition before treatment was rated on a scale of 1 to 3, where 1 was bedridden, 2 was a significant restriction on activity and 3 retained full activity. Therapeutic result was measured on a scale from 0 to 3, where 0 was no improvement, 1 was insignificant or improvement for less than a month, 2 was considerable improvement (25-50% reduction in tumor size) and 3 was sharp improvement (50-100% reduction in tumor size).
# immune system [6] = experiment: Immunological indices in intact August rats; format: in vivo; settings: about 50 mg/kg IP daily for 10 days
# Source text: Additional immunological data were obtained from an “August” line of rats, weighing 140-160 g, with and without Pliss lymphosarcoma. […] Results are summarized in Table V. Overall, lyophilized-dimethylaminoarglabin hydrochloride stimulated delayed type hypersensitivity, but reduced all other studied indices in intact rats. In rats with Pliss Lymphosarcoma, the immune system was stimulated, as all studied indices increased.
# [7] = tested on: Pliss Lymphosarcoma resistant to prospidine; experiment: Inhibition of growth of resistant tumour strains; duration of life and metastasis; format: in vivo, rats
# immune system [8] = experiment: Immune system modulation in mice immunodepressed with cyclophosphamide; format: in vivo; settings: 10 mg/kg for 10 days
# Description: Mice were immunodepressed by administration of 200 mg/kg of cyclophosphamide. […] The Hemagglutination test and delayed-type hypersensitivity reaction were determined before and after administration of drug.
# The increased number of T-lymphocytes was accompanied by an elevation in the T-helper subpopulation as well as the T-suppressor subpopulation, although to a lesser extent.
# immune system [9] = experiment: Immune system modulation in intact mice; format: in vivo
# sarcoma 45 = experiment: Disturbance of DNA synthesis in tumors (inhibition index); format: in vivo, rats; settings: drug resistant sarcoma 45, alone
# immune system [10] = experiment: Indices of patients' immunity, rozette forming and phagocytosis methods (Table X); format: in vivo, human
# Description: The indices of immune system were determined using rozette forming and phagocytosis methods. […] Eleven indices of cellular and humoral immunity were measured from each patient in order to evaluate immune status. The following indices were determined on 0.05 ml of peripheral blood: absolute and relative amount of T- and B-lymphocytes, amount of non-differentiated “zero” cells, adhesion and phagocyte activity of neutrophils, hemogram, level of serum immunoglobulins. Indices were determined before treatment, on days 2, 5 and 14 of treatment, and after treatment.
# Mean values of immunological indices were evaluated with regression analysis. Functional conditions of the immune system were estimated using integral indices such as a mean intensity (correlation) expressed in relative units.
# M-1 Sarcoma = experiment: Inhibition of tumor growth in implanted tumors; format: in vivo, mice and rats; settings: dose 30 mg/kg
# Geren's carcinosarcoma = experiment: Inhibition of tumor growth in implanted tumors; format: in vivo, mice and rats
compound,measurement,setting,value
CC1=CCC23OC2(C)CCC2C(CN(C)C)C(=O)OC2C13.Cl (stereo not drawn) [Dimethylaminoarglabin hydrochloride],LD50,[1]; mice,190 to 220 mg/kg
same,LD50,[1]; rats,280 to 310 mg/kg
same,peak corresponding to the farnesylcysteine derivative,[2],does not appear on the chromatogram
same,geranylgeranyl peak,geranylgeranylation,appeared as in the control
same,effect on immunodepression caused by cytostatics,immune system [3],softened the immunodepressive effect of cytostatics
same,L-1210 - increase in survival,L-1210,+60%
same,"Inhibition of Tumour Growth, % - Pliss lymphosarcoma",Pliss lymphosarcoma,79.6%
same,"Inhibition of Tumour Growth, % - PC-1",PC-1,84.3* %
same,findings after prolonged daily intraperitoneal administration,[4],Reversible changes in glycolysis and tissue respiration
same,average time of retention,"rat, in vivo",about 67 hours
same,brain tissue concentration,"rat, in vivo",23.9 µg/g
same,concentration in the liver,"rat, in vivo",228.6 µg/g
same,maximum lung concentration,"rat, in vivo",149.4 µg/g
same,maximum spleen concentration,"rat, in vivo",159 µg/g
same,penetration through the blood-brain barrier,"rat, in vivo",able to penetrate through the blood-brain barrier
same,total clearance,"rat, in vivo",0.5 mL/min
same,maximal level in the blood serum,"rat, in vivo, iv, 2 mg/kg",30 µg/mL
same,time of maximal level in the blood serum,"rat, in vivo, iv, 2 mg/kg",within one hour
same,volume of distribution,"rat, in vivo, iv, 2 mg/kg",large
same,kidney concentration,"rats, 24 hours",56.6 µg/g
same,concentration in skeletal muscle,"rats, within three hours after administration",176.4 µg/g
same,complaints at high dose,[5]; 480 mg per day,nausea and vomiting
same,patients with a considerable improvement,[5]; liver cancer,55.6%
same,patients with a considerable improvement,[5]; lung cancer,about 64%
same,patients with a considerable improvement,[5]; ovarian cancer,66%
same,patients with a considerable improvement,[5]; overall,approximately 30%
same,Note(s) - decrease in tumor,"[5]; patient 47, rectal cancer III stage, suppositories",50% decrease
same,hematopoiesis,[5]; patients,did not suppress hematopoiesis
same,toxicity,[5]; patients,little toxicity
same,taste reported immediately after administration,[5]; quickly dissipated,bitter taste
same,"Hemagglutination (RHG), Intact Rats After Treatment",immune system [6]; Decreased,43-53%
same,"Nitroblue tetrazolium (NBT), Intact Rats After Treatment",immune system [6]; Decreased,67-91%
same,"Spontaneous-erythrocyte rosette forming (E-ROK), Intact Rats After Treatment",immune system [6]; Decreased,64-84%
same,"Delayed type hypersensitivity, Intact Rats After Treatment",immune system [6]; Increased,153-207%
same,"Inhibition of Tumour Strains Growth, % - Resistant Forms - Pliss Lymphosarcoma to prospidine",[7]; dose 30 mg/kg,62.3%
same,"Inhibition of Tumour Strains Growth, % - Resistant Forms - Pliss Lymphosarcoma to prospidine",[7]; dose 50 mg/kg,87.4*** %
same,leukopenia and lymphopenia,immune system [8],reduced the leukopenia and lymphopenia
same,hemagglutination titer,immune system [9]; 100 mg/kg IP,slight decrease
same,hemagglutination test index,"immune system [9]; repeated IP 30 mg/kg, day 10",decreased
same,hemagglutination titers,"immune system [9]; repeated IP 10 and 20 mg/kg, days 5 and 10",increased
same,delayed-type hypersensitivity reaction,"immune system [9]; repeated IP, day 5",No effect
same,delayed-type hypersensitivity reaction,"immune system [9]; repeated IP, day 10",increased by day 10
same,delayed-type hypersensitivity reaction,immune system [9]; single 50 mg/kg IP,did not alter
same,hemagglutination titer,immune system [9]; single 50 mg/kg IP,did not alter
same,DNA inhibition index,sarcoma 45,99%
same,"level of non-differentiated ""zero"" cells",immune system [10]; 2nd-5th day of treatment,increased
same,percentage of T-lymphocytes and T-helper lymphocytes,immune system [10]; 2nd-5th day of treatment,reduced considerably
same,"immunoglobulins A, M and G",immune system [10]; after the treatment,increased amount
same,"Inhibition of Tumour Growth, % - M-1 Sarcoma",M-1 Sarcoma,83.5** %
same,"Inhibition of Tumour Growth, % - Geren's carcinosarcoma",Geren's carcinosarcoma; dose 30 mg/kg,80.1%
same,"Inhibition of Tumour Growth, % - Geren's carcinosarcoma",Geren's carcinosarcoma; dose 50 mg/kg,83.3* %
